Structures are written as SMILES.

This experiment concerns the target T1, meso-TIM (Saccharomyces cerevisiae, UniProt P00942).
T1 construct: gene TPI1; N-terminal His6 tag, pET28b, E. coli BL21(DE3); dimer; PDB 1NEY is the simulation model
T1 sequence (P00942 2-248): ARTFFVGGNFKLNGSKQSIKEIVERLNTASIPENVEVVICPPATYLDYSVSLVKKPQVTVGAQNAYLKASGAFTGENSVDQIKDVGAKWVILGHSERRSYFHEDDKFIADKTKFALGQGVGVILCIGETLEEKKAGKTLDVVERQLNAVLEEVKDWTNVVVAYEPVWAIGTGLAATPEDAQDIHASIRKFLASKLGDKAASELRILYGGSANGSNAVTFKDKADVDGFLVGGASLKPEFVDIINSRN
The experiment can be described thus: stopped-flow, GAPD-coupled assay, […] nm. Type of experiment: biochemical. The settings on record: 50 mM HEPES pH 7.4, 150 mM NaCl, 10 mM MgCl2, 2.5 mM (NH4)2SO4; two temperatures.

For the compound `O=C(CO)COP(=O)(O)O` [dihydroxyacetone phosphate], the Km entry was “substrate binding kinetics were determined at two temperatures”.

For the origin of these results see paper doi:10.64898/2025.12.31.695415v1, “Correlated dynamics, reactive conformations and non-Arrhenius behaviour in the temperature-dependence of enzyme activity: triosephosphate isomerase” (biorxiv, 2025).
